Reference: patent US20140294856A1, “COMBINATION TREATMENT COMPRISING A HDAC6 INHIBITOR AND AN AKT INHIBITOR” (priority 2011, published 2014)
Read-outs that look alike come from different tables or passages of the source.

Key:
[1] = test system: HCT116 cells; assay: Combination studies, SRB assay, combination index (CalcuSyn); format: cell-based, human
[2] = test system: HCT116 tumours; assay: Phospho-AKT levels in HCT116 tumours; format: in vivo, mice; conditions: single injection 25 mg/kg
[3] = test system: HCT116 human colon cancer xenograft; conditions: BEZ-235 alone 20 mg/kg/d
[4] = test system: HCT116 cells; assay: Phospho-AKT levels by western blotting; format: cell-based, human; conditions: for IC50: Homo sapiens, HCT-116
[5] = Cytotoxicity of compounds of the invention (data not shown); format: cell-based
From the text: HDAC-C1B also appears to be a promising drug candidate.

[6] = in vitro; conditions: human, Caco-2
[7] = test system: HCT116 cells; assay: Acetylated PTEN and PTEN expression; format: cell-based, human
Protocol: FIG. 12. HDAC-C1A treatment is associated with an increase of phopsho-AKT that can be reversed by PI3K/AKT/mTOR inhibitors. […] Similarly, Phospho-Pras 40 seems to increase following treatment with HDAC-C1A. Densitometry data could reinforce this statement (ratio between the total form and the Phospho form of Pras40 that decreases at 24 hours). […] No difference could be seen in endometrial cancer cell line, […]. C. […] E. BEZ-235 can fully reverse the increase of Phospho-AKT mediated by HDAC-C1A in HCT-116 cells. BEZ-235 and HDAC-C1A were co-incubated at the indicated time and concentrations.
FIG. 17. A. Dose and time impact of Tubastatin A on acetylated form of tubulin and histones H3 and H4 and on phospho-AKT levels that could be reversed with BEZ-235 in HCT-116 cells. […] HCT116 were immunoprecipitation with PTEN and stained with HDAC1 or HDAC6, immunoprecipitation with HDAC6 and stained with PTEN. No HDAC1 could have been detected in contrast with HDAC6. There was no effect of the different inhibitors on the different protein levels.
PTEN protein expression was not altered. In vivo, on the gene array, the mRNA levels of PTEN were not altered in HCT116 xenograft model following treatment with HDAC-C1A after 1 and 14 days when compared with vehicle treated group (FIG. 7).
We have shown that HDAC-C1A is associated with increased acetylation of α-tubulin, acetyl HSP90 and acetyl PTEN with only a minor effect on the regulation of the genes (less than 0.7% of the genes have been de-regulated after 14 days of treatment in vivo). We believe that the acetylation of PTEN, via the inhibition of HDAC6, leads to an increase of P-AKT. […] No effect of BEZ235 could be seen on the acetylated status of α-tubulin and histones H3 and H4.

[8] = test system: A2780 cells; assay: Impact of glutathione co-incubation on survival; conditions: compound 1 μM
[9] = test system: HCT116 cells; assay: Acetylation biomarkers by western blotting (with washout); format: cell-based, human
Protocol: FIG. 1. HDAC-C1A irreversible activity. A. […] inhibitory activity of HDAC-C1A was tested using HeLa nuclear extracts and compared to the negative (reversible) control HDAC-C1B. B Growth inhibitory effect of the different compounds in HCT-116 cells at indicated time and compared to growth inhibitory after 72 hours of incubation.
HSP90 protein expression was not altered (FIG. 2).

[10] = biological target: MRP1 (Homo sapiens, UniProt P33527); assay: Impact of MRP1 on cytotoxicity, MK-571 pre-treatment in A549 cells
Protocol: The impact of ABC transporters on the cytotoxicity of HDAC-C1A was assessed using cell lines with differential expression of the ABC transporters and by using inhibitors.

[11] = test system: A549 cells; assay: Impact of BSO (GSH depletion) on growth inhibition, SRB assay; format: cell-based; conditions: 10 μM BSO for 24 hours
[12] = test system: CHO cells deficient in DNA repair; assay: Growth inhibition in cell lines deficient in DNA repair machinery; format: cell-based
[13] = biological target: T1, ABCG2 (Homo sapiens, UniProt Q9UNQ0)
T1 sequence (Q9UNQ0 1-655): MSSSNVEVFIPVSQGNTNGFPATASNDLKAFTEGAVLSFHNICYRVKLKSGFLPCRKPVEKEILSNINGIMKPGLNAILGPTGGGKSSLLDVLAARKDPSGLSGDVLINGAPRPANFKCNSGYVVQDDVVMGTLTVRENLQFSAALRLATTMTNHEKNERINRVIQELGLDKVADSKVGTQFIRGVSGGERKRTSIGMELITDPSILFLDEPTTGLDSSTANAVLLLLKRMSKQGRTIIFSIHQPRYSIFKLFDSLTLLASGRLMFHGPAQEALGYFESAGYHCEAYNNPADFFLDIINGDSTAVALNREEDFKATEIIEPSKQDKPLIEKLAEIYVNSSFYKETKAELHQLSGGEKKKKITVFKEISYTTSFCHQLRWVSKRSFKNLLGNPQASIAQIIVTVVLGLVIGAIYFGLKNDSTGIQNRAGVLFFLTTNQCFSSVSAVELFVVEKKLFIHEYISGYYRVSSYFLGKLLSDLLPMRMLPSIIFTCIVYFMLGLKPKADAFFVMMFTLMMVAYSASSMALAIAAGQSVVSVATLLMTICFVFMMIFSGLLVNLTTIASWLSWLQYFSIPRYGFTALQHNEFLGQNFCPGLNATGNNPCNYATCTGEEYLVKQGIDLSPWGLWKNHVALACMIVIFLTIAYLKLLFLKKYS

[14] = biological target: P-gp (Homo sapiens, UniProt P08183); conditions: mouse
[15] = homologous recombination repair

Sequence of MRP1 (P33527 whole entry): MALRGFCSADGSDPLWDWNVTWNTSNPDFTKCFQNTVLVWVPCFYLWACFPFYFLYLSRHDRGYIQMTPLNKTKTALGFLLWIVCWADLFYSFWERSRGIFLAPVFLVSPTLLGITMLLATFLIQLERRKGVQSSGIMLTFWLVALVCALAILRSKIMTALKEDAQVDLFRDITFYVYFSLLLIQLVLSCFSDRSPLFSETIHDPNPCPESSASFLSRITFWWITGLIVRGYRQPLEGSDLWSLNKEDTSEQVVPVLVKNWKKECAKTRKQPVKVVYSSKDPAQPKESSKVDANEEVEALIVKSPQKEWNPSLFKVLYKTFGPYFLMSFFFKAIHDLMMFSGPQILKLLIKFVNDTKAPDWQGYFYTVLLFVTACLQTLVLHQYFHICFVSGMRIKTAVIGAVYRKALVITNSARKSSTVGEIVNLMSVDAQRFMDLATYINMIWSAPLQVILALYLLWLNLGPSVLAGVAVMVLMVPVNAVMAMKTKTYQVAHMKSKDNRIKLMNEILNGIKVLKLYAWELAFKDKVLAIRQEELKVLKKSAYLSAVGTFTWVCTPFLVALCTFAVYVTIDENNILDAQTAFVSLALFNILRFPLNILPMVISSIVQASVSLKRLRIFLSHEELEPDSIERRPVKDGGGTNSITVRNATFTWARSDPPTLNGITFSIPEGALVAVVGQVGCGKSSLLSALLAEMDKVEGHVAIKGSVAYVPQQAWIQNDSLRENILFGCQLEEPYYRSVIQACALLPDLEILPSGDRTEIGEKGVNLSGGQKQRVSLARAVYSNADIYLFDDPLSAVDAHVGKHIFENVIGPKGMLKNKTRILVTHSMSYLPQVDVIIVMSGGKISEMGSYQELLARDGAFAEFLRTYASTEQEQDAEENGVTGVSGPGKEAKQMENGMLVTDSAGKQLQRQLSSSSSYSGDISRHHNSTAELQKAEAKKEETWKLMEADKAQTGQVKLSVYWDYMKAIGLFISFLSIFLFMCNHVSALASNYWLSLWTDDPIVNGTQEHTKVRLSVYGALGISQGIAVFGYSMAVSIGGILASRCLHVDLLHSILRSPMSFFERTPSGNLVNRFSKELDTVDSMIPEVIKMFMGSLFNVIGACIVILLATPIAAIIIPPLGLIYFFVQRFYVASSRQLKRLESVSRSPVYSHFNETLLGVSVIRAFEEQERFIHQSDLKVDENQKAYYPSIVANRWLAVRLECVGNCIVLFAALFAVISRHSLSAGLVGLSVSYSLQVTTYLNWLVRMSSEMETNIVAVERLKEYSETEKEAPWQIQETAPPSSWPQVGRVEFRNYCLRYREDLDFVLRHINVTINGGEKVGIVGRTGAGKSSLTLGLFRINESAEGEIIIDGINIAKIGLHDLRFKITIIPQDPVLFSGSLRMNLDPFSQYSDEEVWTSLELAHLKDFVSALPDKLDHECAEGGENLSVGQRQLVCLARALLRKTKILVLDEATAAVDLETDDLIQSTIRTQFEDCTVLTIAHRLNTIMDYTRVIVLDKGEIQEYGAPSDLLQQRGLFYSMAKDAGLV
Sequence of P-gp (P08183 whole entry): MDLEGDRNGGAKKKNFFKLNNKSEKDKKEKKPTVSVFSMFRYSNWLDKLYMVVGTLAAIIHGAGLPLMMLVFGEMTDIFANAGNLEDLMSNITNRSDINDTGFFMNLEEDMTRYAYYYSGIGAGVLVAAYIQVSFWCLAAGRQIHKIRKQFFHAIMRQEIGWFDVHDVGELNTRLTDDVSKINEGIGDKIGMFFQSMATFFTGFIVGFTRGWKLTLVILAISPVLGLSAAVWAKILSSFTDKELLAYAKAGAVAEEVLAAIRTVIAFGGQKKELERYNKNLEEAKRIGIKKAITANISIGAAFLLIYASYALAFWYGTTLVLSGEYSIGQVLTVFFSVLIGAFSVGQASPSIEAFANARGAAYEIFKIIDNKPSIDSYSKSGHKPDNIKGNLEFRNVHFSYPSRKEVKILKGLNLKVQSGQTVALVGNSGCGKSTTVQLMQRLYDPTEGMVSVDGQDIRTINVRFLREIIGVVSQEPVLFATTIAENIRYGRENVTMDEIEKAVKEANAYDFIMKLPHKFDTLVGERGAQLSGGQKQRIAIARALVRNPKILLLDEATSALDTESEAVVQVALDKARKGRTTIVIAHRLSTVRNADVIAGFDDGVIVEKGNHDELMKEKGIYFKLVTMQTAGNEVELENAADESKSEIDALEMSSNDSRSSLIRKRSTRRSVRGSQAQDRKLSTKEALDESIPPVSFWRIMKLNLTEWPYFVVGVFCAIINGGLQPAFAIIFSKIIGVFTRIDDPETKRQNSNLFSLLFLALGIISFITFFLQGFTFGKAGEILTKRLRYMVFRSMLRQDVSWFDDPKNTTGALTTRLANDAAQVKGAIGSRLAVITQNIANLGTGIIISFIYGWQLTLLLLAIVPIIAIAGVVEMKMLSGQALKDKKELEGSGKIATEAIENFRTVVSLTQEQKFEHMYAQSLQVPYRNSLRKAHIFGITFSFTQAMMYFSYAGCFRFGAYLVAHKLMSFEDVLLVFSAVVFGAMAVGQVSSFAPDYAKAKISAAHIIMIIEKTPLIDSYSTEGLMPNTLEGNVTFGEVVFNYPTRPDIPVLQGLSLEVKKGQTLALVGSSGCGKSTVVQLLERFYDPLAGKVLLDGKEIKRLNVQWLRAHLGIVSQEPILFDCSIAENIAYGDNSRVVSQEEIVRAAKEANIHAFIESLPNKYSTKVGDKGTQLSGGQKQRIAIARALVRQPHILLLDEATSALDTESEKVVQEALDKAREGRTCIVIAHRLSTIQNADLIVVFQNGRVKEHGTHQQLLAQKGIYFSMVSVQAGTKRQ

SMILES: O=c1[nH]cc(F)c(=O)[nH]1 [5FU]
- combination effect with HDAC-C1A on growth inhibition ([1]; HCT116, 72 hours): additive effect

SMILES: CN(C)CC[C@H](CSc1ccccc1)Nc1ccc(S(=O)(=O)NC(=O)c2ccc(N3CCN(Cc4ccccc4-c4ccc(Cl)cc4)CC3)cc2)cc1[N+](=O)[O-] [ABT-737]
- combination effect with HDAC-C1A on growth inhibition ([1]; HCT116, 72 hours): Synergistic effect

SMILES: Cn1c(=O)n(-c2ccc(C(C)(C)C#N)cc2)c2c3cc(-c4cnc5ccccc5c4)ccc3ncc21 [BEZ-235]
- P-AKT in tumours ([2]; 2 hours after treatment): Persistent inhibition
- P-AKT in tumours ([2]; by 30 minutes): rapid down-regulation
- P-AKT in tumours ([2]; from 6 hours post treatment): partial recovery to basal levels
- TGD2x [3]: 3.4 ± 1.9 days
- TGI [3]: 21%
- P-AKT levels, single agent [4]: dose dependent decrease
- IC50 ([4]; 4 hours treatment, read-out: IC50 for inhibition of P-AKT): 10 nM
- IC50 ([4]; added to Tubastatin A, read-out: IC50 for reversal of Tubastatin A-induced P-AKT): 10 nM
- IC50 ([4]; combined with 10 μM HDAC-C1A, read-out: IC50 for P-AKT when combined with HDAC-C1A): 50 nM
- effect on acetylated status of α-tubulin and histones H3 and H4 ([4]; added to Tubastatin A): No effect
- reversal of the increase of Phospho-AKT mediated by HDAC-C1A ([4]; co-incubated with HDAC-C1A): fully reverse
- combination effect with HDAC-C1A on growth inhibition ([1]; HCT116, 72 hours): Synergistic effect

SMILES: CCN(CC)c1ccc(S(=O)(=O)Nc2ccc(/C=C(C)/C=C/C(=O)NO)cc2)cc1 [HDAC-C1B]
- cytotoxic potency relative to HDAC-C1A [5]: approximately 1.5 fold

SMILES: COc1ccc(C2=N[C@@H](c3ccc(Cl)cc3)[C@@H](c3ccc(Cl)cc3)N2C(=O)N2CCNC(=O)C2)c(OC(C)C)c1 [Nutlin-3]
- combination effect with HDAC-C1A on growth inhibition ([1]; HCT116, 72 hours): additive effect

SMILES: O=C(CCCCCCC(=O)Nc1ccccc1)NO [SAHA, suberanoyl hydroxamic acid, reference compound]
- Papp A→B [6]: 14 ×10⁻⁶ cm/s
- acetyl form of PTEN ([7]; 4 h and 24 h, 1 μM and 10 μM): no effect
- effect of GSH on cytotoxicity [8]: antagonistic effect
- acetylation markers at low concentration and early time point ([9]; 1 μM and 4 hours): opposite
- acetylation of histone H3, H4 and α-tubulin after washout ([9]; treatment 4 hours, then washout): lost by 4 h
- effect on P-AKT ([4]; 10 μM): no effect
- substrate of MRP1 [10]: non-substrates
- concentration of LY-294002 needed to synergise [1]: greater than 4 μM
- combination effect with rapamycin at ED50 ([1]; concentrations below 7.5 μM): antagonistic effect

SMILES: CN1CCc2c(c3ccccc3n2Cc2ccc(C(=O)NO)cc2)C1 [Tubastatin A]
- acetylated form of PTEN ([7]; 24 hours of incubation): dose dependent increase
- P-AKT ([4]; Tubastatin A alone): time dependent increase
- concentration of LY-294002 needed to synergise [1]: 0.1 µM
- combination effect with inhibitors of the PI3K/AKT/mTOR pathway ([1]; HCT116, 72 hours): synergises as well

SMILES: CC(C)C[C@H](NC(=O)[C@H](Cc1ccccc1)NC(=O)c1cnccn1)B(O)O [bortezomib]
- combination effect with HDAC-C1A on growth inhibition ([1]; HCT116, 72 hours): Synergistic effect

SMILES: O=C(O)CCCc1ccc(N(CCCl)CCCl)cc1 [chlorambucil, reference compound]
- impact of BSO on growth inhibition (GI50 ratio) [11]: 8.5
- sensitivity (GI50 ratio) of cells deficient in XRCC3 vs proficient [12, 15]: 7.8
- sensitivity (GI50 ratio, fold) of cells deficient in XRCC2 vs proficient [12, 15]: > 100
- sensitivity (GI50 ratio, fold) of cells deficient in XRCC5 vs proficient ([12]; non homologous end joining): > 100
- sensitivity (GI50 ratio) of cells deficient in ERCC1 vs proficient ([12]; nucleotide excision repair): > 100

SMILES: O=C1c2c(O)ccc(O)c2C(=O)c2c(NCCNCCO)ccc(NCCNCCO)c21 [mitoxantrone]
- fold resistance (GI50 ratio) MCF7-MX vs parental MCF7 [13]: 120 fold
- reversal of resistance by FTC in MCF7-MX cells [13]: 70 fold

SMILES: CC[C@]1(O)C[C@@H]2CN(CCc3c([nH]c4ccccc34)[C@@](C(=O)OC)(c3cc4c(cc3OC)N(C)[C@H]3[C@@](O)(C(=O)OC)[C@H](OC(C)=O)[C@]5(CC)C=CCN6CC[C@]43[C@@H]65)C2)C1 [vinblastine]
- fold resistance (GI50 ratio) P-gp over-expressing 3T3 vs parental [14]: > 100 fold
